{"source": "patent US20110053773A1", "about": "“METHODS OF IMPROVING NUTRITIONAL VALUE OF PLANTS” (UNIVERSITY OF TENNESSEE RESEARCH FOUNDATION, priority 2009, published 2011)", "key": {"[1]": {"test_system": "'Riviera' bermudagrass", "experiment": "Leaf tissue pigment concentrations of bermudagrass after mesotrione (Example 5, Table 16)", "type": "in vivo, Cynodon dactylon (L.) Pers.", "settings": "for Blade tissue pigments: Beta-carotene / Blade tissue pigments: Lutein / Blade tissue pigments: Phytoene / Blade tissue pigments: Total Carotenoids / Blade tissue pigments: Violaxanthin / Blade tissue pigments: Zeaxanthin: 0.28 kg ai×ha^−1", "excerpt": "Greenhouse and laboratory studies were initiated with ‘Riviera’ bermudagrass (Cynodon dactylon (L.) Pers.) treated postemergence with mesotrione at 0.28 kg×ha^−1 and sampled for tissue pigment concentrations at 0, 3, 7, 14, 21, 28 and 35 days after treatment (DAT; Table 16). […] Due to the antioxidant activity of these carotenoid pigments, these increases should improve bermudagrass stress tolerance (Kopsell et al., 2010)."}, "[2]": {"test_system": "sweet corn variety 'Incredible'", "experiment": "Sugar and key antioxidant content of sweet corn (Example 1, Table 15)", "type": "in vivo, Zea mays var. rugosa", "settings": "rates g ai/ha: Nicosulfuron 35, Mesotrione 105, Topramezone 18, Isoxadifen-ethyl 13, all incl. treated check with atrazine 560 g ai/ha + 1% v/v crop oil concentrate", "excerpt": "Herbicide treatments were applied in a water carrier at 23 gallons of solution per acre on a field site near Knoxville, Tenn. and Painter, Va. […] All treatments included a PRE application of atrazine plus metolachlor in order to maintain weed free conditions. In addition, all POST treatments (including the treated check) included atrazine at 560 g ai/ha and crop oil concentrate at 1% v/v. […] Sweet corn was harvested from the center two rows of each four row plot and weighed in the husk."}}, "data": [{"smiles": "CS(=O)(=O)c1ccc(C(=O)C2C(=O)CCCC2=O)c([N+](=O)[O-])c1", "note": "[Mesotrione*CALLISTO, mesotrione]", "values": [{"measurement": "Blade tissue pigments: Beta-carotene", "setting": "[1]; 0 days after treatment", "value": 17.2, "unit": "mg/100 g fresh weight"}, {"measurement": "Blade tissue pigments: Lutein", "setting": "[1]; 0 days after treatment", "value": 23.6, "unit": "mg/100 g fresh weight"}, {"measurement": "Blade tissue pigments: Phytoene", "setting": "[1]; 0 days after treatment", "value": 0.0, "unit": "mg/100 g fresh weight"}, {"measurement": "Blade tissue pigments: Total Carotenoids", "setting": "[1]; 0 days after treatment", "value": 57.5, "unit": "mg/100 g fresh weight"}, {"measurement": "Blade tissue pigments: Violaxanthin", "setting": "[1]; 0 days after treatment", "value": 6.9, "unit": "mg/100 g fresh weight"}, {"measurement": "Blade tissue pigments: Zeaxanthin", "setting": "[1]; 0 days after treatment", "value": 3.2, "unit": "mg/100 g fresh weight"}, {"measurement": "Blade tissue pigments: Beta-carotene", "setting": "[1]; 3 days after treatment", "value": 11.6, "unit": "mg/100 g fresh weight"}, {"measurement": "Blade tissue pigments: Lutein", "setting": "[1]; 3 days after treatment", "value": 14.8, "unit": "mg/100 g fresh weight"}, {"measurement": "Blade tissue pigments: Phytoene", "setting": "[1]; 3 days after treatment", "value": 37.5, "unit": "mg/100 g fresh weight"}, {"measurement": "Blade tissue pigments: Total Carotenoids", "setting": "[1]; 3 days after treatment", "value": 42.9, "unit": "mg/100 g fresh weight"}, {"measurement": "Blade tissue pigments: Violaxanthin", "setting": "[1]; 3 days after treatment", "value": 1.6, "unit": "mg/100 g fresh weight"}, {"measurement": "Blade tissue pigments: Zeaxanthin", "setting": "[1]; 3 days after treatment", "value": 3.1, "unit": "mg/100 g fresh weight"}, {"measurement": "Blade tissue pigments: Beta-carotene", "setting": "[1]; 7 days after treatment", "value": 7.4, "unit": "mg/100 g fresh weight"}, {"measurement": "Blade tissue pigments: Lutein", "setting": "[1]; 7 days after treatment", "value": 14.1, "unit": "mg/100 g fresh weight"}, {"measurement": "Blade tissue pigments: Phytoene", "setting": "[1]; 7 days after treatment", "value": 38.0, "unit": "mg/100 g fresh weight"}, {"measurement": "Blade tissue pigments: Total Carotenoids", "setting": "[1]; 7 days after treatment", "value": 35.6, "unit": "mg/100 g fresh weight"}, {"measurement": "Blade tissue pigments: Violaxanthin", "setting": "[1]; 7 days after treatment", "value": 1.6, "unit": "mg/100 g fresh weight"}, {"measurement": "Blade tissue pigments: Zeaxanthin", "setting": "[1]; 7 days after treatment", "value": 3.3, "unit": "mg/100 g fresh weight"}, {"measurement": "Blade tissue pigments: Beta-carotene", "setting": "[1]; 14 days after treatment", "value": 7.6, "unit": "mg/100 g fresh weight"}, {"measurement": "Blade tissue pigments: Lutein", "setting": "[1]; 14 days after treatment", "value": 16.4, "unit": "mg/100 g fresh weight"}, {"measurement": "Blade tissue pigments: Phytoene", "setting": "[1]; 14 days after treatment", "value": 11.7, "unit": "mg/100 g fresh weight"}, {"measurement": "Blade tissue pigments: Total Carotenoids", "setting": "[1]; 14 days after treatment", "value": 47.2, "unit": "mg/100 g fresh weight"}, {"measurement": "Blade tissue pigments: Violaxanthin", "setting": "[1]; 14 days after treatment", "value": 3.5, "unit": "mg/100 g fresh weight"}, {"measurement": "Blade tissue pigments: Zeaxanthin", "setting": "[1]; 14 days after treatment", "value": 3.8, "unit": "mg/100 g fresh weight"}, {"measurement": "Blade tissue pigments: Beta-carotene", "setting": "[1]; 21 days after treatment", "value": 11.4, "unit": "mg/100 g fresh weight"}, {"measurement": "Blade tissue pigments: Lutein", "setting": "[1]; 21 days after treatment", "value": 21.2, "unit": "mg/100 g fresh weight"}, {"measurement": "Blade tissue pigments: Phytoene", "setting": "[1]; 21 days after treatment", "value": 0.0, "unit": "mg/100 g fresh weight"}, {"measurement": "Blade tissue pigments: Total Carotenoids", "setting": "[1]; 21 days after treatment", "value": 60.1, "unit": "mg/100 g fresh weight"}, {"measurement": "Blade tissue pigments: Violaxanthin", "setting": "[1]; 21 days after treatment", "value": 4.0, "unit": "mg/100 g fresh weight"}, {"measurement": "Blade tissue pigments: Zeaxanthin", "setting": "[1]; 21 days after treatment", "value": 4.7, "unit": "mg/100 g fresh weight"}, {"measurement": "Blade tissue pigments: Beta-carotene", "setting": "[1]; 28 days after treatment", "value": 18.9, "unit": "mg/100 g fresh weight"}, {"measurement": "Blade tissue pigments: Lutein", "setting": "[1]; 28 days after treatment", "value": 32.1, "unit": "mg/100 g fresh weight"}, {"measurement": "Blade tissue pigments: Phytoene", "setting": "[1]; 28 days after treatment", "value": 0.0, "unit": "mg/100 g fresh weight"}, {"measurement": "Blade tissue pigments: Total Carotenoids", "setting": "[1]; 28 days after treatment", "value": 77.2, "unit": "mg/100 g fresh weight"}, {"measurement": "Blade tissue pigments: Violaxanthin", "setting": "[1]; 28 days after treatment", "value": 2.8, "unit": "mg/100 g fresh weight"}, {"measurement": "Blade tissue pigments: Zeaxanthin", "setting": "[1]; 28 days after treatment", "value": 5.7, "unit": "mg/100 g fresh weight"}, {"measurement": "Blade tissue pigments: Beta-carotene", "setting": "[1]; 35 days after treatment", "value": 21.2, "unit": "mg/100 g fresh weight"}, {"measurement": "Blade tissue pigments: Lutein", "setting": "[1]; 35 days after treatment", "value": 37.1, "unit": "mg/100 g fresh weight"}, {"measurement": "Blade tissue pigments: Phytoene", "setting": "[1]; 35 days after treatment", "value": 0.0, "unit": "mg/100 g fresh weight"}, {"measurement": "Blade tissue pigments: Total Carotenoids", "setting": "[1]; 35 days after treatment", "value": 92.7, "unit": "mg/100 g fresh weight"}, {"measurement": "Blade tissue pigments: Violaxanthin", "setting": "[1]; 35 days after treatment", "value": 6.8, "unit": "mg/100 g fresh weight"}, {"measurement": "Blade tissue pigments: Zeaxanthin", "setting": "[1]; 35 days after treatment", "value": 6.4, "unit": "mg/100 g fresh weight"}, {"measurement": "pigments in treated plants", "setting": "[1]; 0.28 kg/ha postemergence, after initial decrease with tissue whitening", "value": "most recovered to untreated levels by 21 DAT"}, {"measurement": "lutein, β-carotene, and zeaxanthin versus untreated control plants", "setting": "[1]; 0.28 kg/ha postemergence, at 35 DAT", "value": "accumulated to levels exceeding untreated control plants"}, {"measurement": "phytoene detection", "setting": "[1]; 0.28 kg/ha postemergence, sampled 0 to 35 DAT", "value": "only detected in mesotrione treated plants at 3, 7, and 14 DAT"}, {"measurement": "Fructose, percent increase", "setting": "[2]", "value": 18, "unit": "%"}, {"measurement": "Gamma-tocopherol, percent increase", "setting": "[2]", "value": 5, "unit": "%"}, {"measurement": "Glucose, percent increase", "setting": "[2]", "value": 19, "unit": "%"}, {"measurement": "Lutein, percent increase", "setting": "[2]", "value": 17, "unit": "%"}, {"measurement": "Maltose, percent increase", "setting": "[2]", "value": 15, "unit": "%"}, {"measurement": "Sucrose, percent increase", "setting": "[2]", "value": "−32", "unit": "%"}, {"measurement": "Total Sugars, percent increase", "setting": "[2]", "value": "−4", "unit": "%"}, {"measurement": "Zeaxanthin, percent increase", "setting": "[2]", "value": 1, "unit": "%"}, {"measurement": "antheraxanthin, percent increase", "setting": "[2]", "value": 14, "unit": "%"}]}]}
